How the values were obtained:
[1] = tested on: cassava AHAS D376A mutant in CHI bacterial cells; experiment: bacterial spot test, serially-diluted cells on herbicide plates; format: cell-based, Cassava (Manihot esculenta)
Description: (§1) Mutations were generated by site-directed mutagenesis (SDM) of the wild-type Cassava AHAS gene 1 and transformed into CHI bacterial cells lacking the endogenous AHAS homolog. Serially-diluted cells were plated onto plates with increasing concentrations of either imazamox (IM) or flumetsulam (TP). Cassava AHAS wt and a canola ALS mutant known to be highly herbicide tolerant were used as negative and positive controls, respectively. Representative set of bacterial spot tests showing the positive and negative controls, some other mutants tested and the D376A mutant. The herbicide concentrations listed on the left-most column correspond to the entire row and columns separate different lines. Each spot test consists of four 1:10 serial dilutions (10-3, 10-4, 10-5 and 10-6) after normalization based on the OD600 of each M9 liquid culture.

[2] = tested on: cassava AHAS W574L mutant in CHI bacterial cells; experiment: as above; format: cell-based, Cassava (Manihot esculenta); settings: growth is inconsistent
Description: as §1

[3] = tested on: cassava AHAS W574S mutant in CHI bacterial cells; experiment: as above; format: cell-based, Cassava (Manihot esculenta); settings: similar to the canola positive control
Description: as §1, with “W574S” for “D376A”

[4] = tested on: cassava AHAS D376A mutant in CHI bacterial cells; experiment: kill curve assay, colonies counted on herbicide plates; format: cell-based, Cassava (Manihot esculenta)
Description: (§2) Mutants were also tested using a “kill curve” assay where equal numbers of cells containing the mutant of interest were plated onto plates with increasing concentrations of herbicide and the number of resulting colonies counted. Kill curve results averaged between three experiments, each with an average of three technical replicates. Error bars are ±one standard deviation of the averaged data. Results are depicted in FIG. 8.

[5] = tested on: wt cassava AHAS gene in CHI bacterial cells lacking the endogenous AHAS homolog; experiment: bacterial spot test, serially-diluted cells on herbicide plates; format: cell-based, Cassava (Manihot esculenta); settings: negative control wt cassava AHAS gene
Description: as §1, with “W574S” for “D376A”
Mutations were generated by site-directed mutagenesis (SDM) of the wild-type Cassava AHAS gene 1 and transformed into CHI bacterial cells lacking the endogenous AHAS homolog. Serially-diluted cells were plated onto plates with increasing concentrations of either imazamox (IM) or flumetsulam (TP). Cassava AHAS wt and a canola ALS mutant known to be highly herbicide tolerant were used as negative and positive controls, respectively. […]

[6] = tested on: canola ALS mutant in CHI bacterial cells; experiment: as above; format: cell-based; settings: positive control canola ALS mutant
Description: as §1, with “W574S” for “D376A”
as §1

[7] = tested on: cassava AHAS W574L mutant in CHI bacterial cells; experiment: kill curve assay, colonies counted on herbicide plates; format: cell-based, Cassava (Manihot esculenta); settings: growth is inconsistent
Description: (§3) Mutants were also tested using a “kill curve” assay where equal numbers of cells containing the mutant of interest were plated onto plates with increasing concentrations of herbicide and the number of resulting colonies counted. Kill curve results averaged between three experiments, each with an average of three technical replicates. Error bars are ±one standard deviation of the averaged data. Results are depicted in FIG. 6.
as §2

[8] = tested on: cassava AHAS W574S mutant in CHI bacterial cells; experiment: as above; format: cell-based, Cassava (Manihot esculenta)
Description: as §3

SMILES	tolerance to herbicide [1]	tolerance to herbicide [2]	growth of cells on plates containing herbicide [3]	tolerance to herbicide [4]	growth of cells on plates containing herbicide [5]	growth of cells on plates containing herbicide [6]	herbicide concentration at which all growth ceased [6] [mM]	tolerance to herbicide [7]	tolerance to herbicide [8]
COCc1cnc(C2=NC(C)(C(C)C)C(=O)N2)c(C(=O)O)c1 (stereo not drawn) [IM, imazamox]	robust tolerance	robust tolerance	robust growth	robust tolerance	failed to grow	grew on all concentrations	5	robust tolerance	
Cc1ccn2nc(S(=O)(=O)Nc3c(F)cccc3F)nc2n1 [TP, flumetsulam]		robust tolerance	robust growth		failed to grow	grew on all concentrations	5	robust tolerance	enhanced tolerance
